Like-named read-outs stand apart in the source and are kept apart here.
Test system: HBV
Assay: In-vitro anti-HBV activity in stable HBV-producing cell line (HepG2.2.15), HBV DNA in culture fluid by qPCR
Assay type: cell-based
Conditions: Hepatitis B virus, read-out: HBV (% Inh.) (500 nmol)
Description: In-Vitro Anti-HBV Activity of Compounds in Stable HBV-Producing Cell Line (HepG2.2.15)
HBV DNA contents in cell culture fluid were detected by the qPCR-based assay and percents of HBV inhibition by compounds (% Inh) were calculated. Specific procedures are as follows:
HepG2.2.15 cells were seeded into each well of 96-well plates, 40,000 cells per well. Cells were treated with cell culture medium containing compounds 24 hours after cell seeding. Each compound to detected percent inhibition was in duplicate and the final concentration of each compound was 500 nmol in each well. The compound-containing mediums were refreshed on day 4 post cell seeding. Culture media were collected from the HepG2.2.15 plates on day 7 post cell seeding followed by HBV DNA extraction.
HBV DNA extraction: using QIAamp 96 DNA Blood Kit (QIAGEN 51161).
PCR for quantification: PCR mix was prepared according to PCR system; PCR mix was dispensed to 384-well optical reaction plates (special for quantification); The standard diluted proportionally was added; The sample was added; The plates were sealed with optical adhesive film; PCR system was performed according to programs.
Percent of HBV inhibition of DNA replication by compound was calculated using the following equation: % Inh.=[1-HBV DNA quantity of sample/HBV DNA quantity of DMSO control]*100. II. Assay Results

[1] = 168 h, 500 nmol final concentration, HepG2.2.15 cells, HBV DNA in culture media on day 7 post seeding, vs DMSO control

Structure (SMILES)	inhibition at 0.5 µM [1] [%]	inhibition at 0.5 µM (HepG2.2.15, 168 h) [%]
CCOC(=O)C1=C(CN2CCO[C@H](COC(=O)C(N)C(C)C)C2)NC(c2nccs2)=NC1c1ccc(F)cc1Br (stereo in doubt) [Example 126, Ethyl 6-(((S)-2-((((S)-2-amino-3-methylbutanoyl)oxy)methyl)morpholino)methyl)-4-(2-bromo-4-fluorophenyl)-2-(thiazol-2-yl)-1,4-dihydropyrimidine-5-carboxylate]	94.7	–
CCOC(=O)C1=C(CN2CCOCC2C(=O)O)NC(c2nccs2)=NC1c1ccccc1C(F)(F)F (stereo not drawn) [Example 1, 4-((5-(ethoxycarbonyl)-2-(thiazol-2-yl)-6-(2-(trifluoromethyl)phenyl)-3,6-dihydropyrimidin-4-yl)methyl)morpholine-3-carboxylic acid]	75.8	–
CCOC(=O)C1=C(CN2CCOCC2C(=O)O)NC(c2nccs2)=NC1c1ccccc1[N+](=O)[O-] (stereo not drawn) [Example 2, 4-((5-(ethoxycarbonyl)-6-(2-nitrophenyl)-2-(thiazol-2-yl)-3,6-dihydropyrimidin-4-yl)methyl)morpholine-3-carboxylic acid]	31.3	–
CCOC(=O)C1=C(CN2CCOCC2C(=O)O)NC(c2nccs2)=NC1c1ccc(F)cc1Br (stereo not drawn) [Example 3, 4-((6-(2-bromo-4-fluorophenyl)-5-(ethoxycarbonyl)-2-(thiazol-2-yl)-3,6-dihydropyrimidin-4-yl)methyl)morpholine-3-carboxylic acid]	84.5	–
CCOC(=O)C1=C(CN2CCOCC2C(=O)O)NC(c2nccs2)=NC1c1ccc(F)cc1Cl (stereo not drawn) [Example 4, 4-((6-(2-chloro-4-fluorophenyl)-5-(ethoxycarbonyl)-2-(thiazol-2-yl)-3,6-dihydropyrimidin-4-yl)methyl)morpholine-3-carboxylic acid]	90	–
CCOC(=O)C1=C(CN2CCOCC2C(=O)O)NC(c2nccs2)=NC1c1ccc(Cl)cc1Cl (stereo not drawn) [Example 5, 4-((6-(2,4-dichlorophenyl)-5-(ethoxycarbonyl)-2-(thiazol-2-yl)-3,6-dihydropyrimidin-4-yl)methyl)morpholine-3-carboxylic acid]	–	95
COC(=O)C1=C(CN2CCOCC2C(=O)O)NC(c2nccs2)=NC1c1ccc(F)cc1Br (stereo not drawn) [Example 6, 4-((6-(2-bromo-4-fluorophenyl)-5-(methoxycarbonyl)-2-(thiazol-2-yl)-3,6-dihydropyrimidin-4-yl)methyl)morpholine-3-carboxylic acid]	99.9	–
CCOC(=O)C1=C(CN2CCOC(C(=O)O)C2)NC(c2nccs2)=NC1c1ccc(F)cc1Br (stereo not drawn) [Example 9, 4-((6-(2-bromo-4-fluorophenyl)-5-(ethoxycarbonyl)-2-(thiazol-2-yl)-3,6-dihydropyrimidin-4-yl)methyl)morpholine-2-carboxylic acid]	–	93.1
CCOC(=O)C1=C(CN2CCOC(C(=O)O)C2)NC(c2nccs2)=NC1c1ccc(F)cc1Cl (stereo not drawn) [Example 10, 4-((6-(2-chloro-4-fluorophenyl)-5-(ethoxycarbonyl)-2-(thiazol-2-yl)-3,6-dihydropyrimidin-4-yl)methyl)morpholine-2-carboxylic acid]	89.7	–
CCOC(=O)C1=C(CN2CCOC(C(=O)O)C2)NC(c2nccs2)=NC1c1ccc(Cl)cc1Cl (stereo not drawn) [Example 11, 4-((6-(2,4-dichlorophenyl)-5-(ethoxycarbonyl)-2-(thiazol-2-yl)-3,6-dihydropyrimidin-4-yl)methyl)morpholine-2-carboxylic acid]	95.6	–
COC(=O)C1=C(CN2CCOC(C(=O)O)C2)NC(c2nccs2)=NC1c1ccc(F)cc1Br (stereo not drawn) [Example 12, 4-((6-(2-bromo-4-fluorophenyl)-5-(methoxycarbonyl)-2-(thiazol-2-yl)-3,6-dihydropyrimidin-4-yl)methyl)morpholine-2-carboxylic acid]	53.8	–
COC(=O)C1=C(CN2CCOC(C(=O)O)C2)NC(c2nccs2)=NC1c1ccc(F)cc1Cl (stereo not drawn) [Example 13, 4-((6-(2-chloro-4-fluorophenyl)-5-(methoxycarbonyl)-2-(thiazol-2-yl)-3,6-dihydropyrimidin-4-yl)methyl)morpholine-2-carboxylic acid]	54.5	–
CCOC(=O)C1=C(CN2CC(C)(C)OC[C@H]2C(=O)O)NC(c2nccs2)=NC1c1ccc(Cl)cc1Cl (stereo partly drawn) [Example 21, (3S)-4-((6-(2,4-dichlorophenyl)-5-(ethoxycarbonyl)-2-(thiazol-2-yl)-3,6-dihydropyrimidin-4-yl)methyl)-6,6-dimethylmorpholine-3-carboxylic acid]	51.2	–
CCOC(=O)C1=C(CN2CC(C)(C)OC[C@H]2C(=O)O)NC(c2nccs2)=NC1c1ccc(F)cc1Cl (stereo partly drawn) [Example 23, (3S)-4-((6-(2-chloro-4-fluorophenyl)-5-(ethoxycarbonyl)-2-(thiazol-2-yl)-3,6-dihydropyrimidin-4-yl)methyl)-6,6-dimethylmorpholine-3-carboxylic acid]	45	–
CCOC(=O)C1=C(CN2CC(C)(C)OC[C@H]2C(=O)OC)NC(c2nccs2)=NC1c1ccc(Cl)cc1Cl (stereo partly drawn) [Example 24, Methyl (3S)-4-((6-(2,4-dichlorophenyl)-5-(ethoxycarbonyl)-2-(thiazol-2-yl)-3,6-dihydropyrimidin-4-yl)methyl)-6,6-dimethylmorpholine-3-carboxylate]	56.1	–
CCOC(=O)C1=C(CN2CCOCC2C(N)=O)NC(c2nccs2)=NC1c1ccc(F)cc1Br (stereo not drawn) [Example 25, Ethyl 4-(2-bromo-4-fluorophenyl)-6-((3-carbamoylmorpholino)methyl)-2-(thiazol-2-yl)-1,4-dihydropyrimidine-5-carboxylate]	91.9	–
CCOC(=O)C1=C(CN2CCOCC2C(N)=O)NC(c2nccs2)=NC1c1ccc(F)cc1Cl (stereo not drawn) [Example 26, Ethyl 6-((3-carbamoylmorpholino)methyl)-4-(2-chloro-4-fluorophenyl)-2-(thiazol-2-yl)-1,4-dihydropyrimidine-5-carboxylate]	96	–
CCOC(=O)C1=C(CN2CCOCC2C(N)=O)NC(c2nccs2)=NC1c1ccc(Cl)cc1Cl (stereo not drawn) [Example 27, Ethyl 6-((3-carbamoylmorpholino)methyl)-4-(2,4-dichlorophenyl)-2-(thiazol-2-yl)-1,4-dihydropyrimidine-5-carboxylate]	91.9	–
CCOC(=O)C1=C(CN2CCO[C@H](C)[C@H]2C(=O)O)NC(c2nccs2)=NC1c1ccc(F)cc1Br (stereo partly drawn) [Example 34, (2R,3S)-4-((6-(2-bromo-4-fluorophenyl)-5-(ethoxycarbonyl)-2-(thiazol-2-yl)-3,6-dihydropyrimidin-4-yl)methyl)-2-methylmorpholine-3-carboxylic acid]	–	94.3
CCOC(=O)C1=C(CN2CCOC[C@@H]2CO)NC(c2nccs2)=NC1c1ccc(F)cc1Br (stereo partly drawn) [Example 40, Ethyl 4-(2-bromo-4-fluorophenyl)-6-(((S)-3-(hydroxymethyl)morpholino)methyl)-2-(thiazol-2-yl)-1,4-dihydropyrimidine-5-carboxylate]	95	–
CCOC(=O)C1=C(CN2CCOC[C@@H]2CO)NC(c2nccs2)=NC1c1ccc(Cl)cc1Cl (stereo partly drawn) [Example 42, Ethyl 4-(2,4-dichlorophenyl)-6-(((S)-3-(hydroxymethyl)morpholino)methyl)-2-(thiazol-2-yl)-1,4-dihydropyrimidine-5-carboxylate]	–	91.9

Reference: patent publication US9340538B2, “Dihydropyrimidine compounds and their application in pharmaceuticals” (SUNSHINE LAKE PHARMA CO., LTD., priority 2013, dated 2016)
